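How tested: cells in 96-well plates exposed to compound for 48 hours at five concentrations. At the TGI there is no net growth.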
Assays:
Test in all cases: NCI tumour cell line growth inhibition, 48 h
HL-60(TB) leukemia = system: HL-60(TB) leukemia
NCI-H226 lung = system: NCI-H226 lung
BT-549 breast = system: BT-549 breast
SR leukemia = system: SR leukemia
OVCAR-4 ovarian = system: OVCAR-4 ovarian
KM12 colon = system: KM12 colon
M14 melanoma = system: M14 melanoma
ACHN renal = system: ACHN renal
SF-539 CNS = system: SF-539 CNS
MDA-N = system: MDA-N
SF-295 CNS = system: SF-295 CNS
786-0 renal = system: 786-0 renal
CCRF-CEM leukemia = system: CCRF-CEM leukemia
NCI-H23 lung = system: NCI-H23 lung
TK-10 renal = system: TK-10 renal
MDA-MB-435 = system: MDA-MB-435
NCI/ADR-RES ovarian = system: NCI/ADR-RES ovarian
K-562 leukemia = system: K-562 leukemia
NCI-H460 lung = system: NCI-H460 lung

| Structure (SMILES) | TGI (HL-60(TB) leukemia) | TGI (NCI-H226 lung) | TGI (BT-549 breast) | TGI (SR leukemia) | TGI (OVCAR-4 ovarian) | TGI (KM12 colon) | TGI (M14 melanoma) | TGI (ACHN renal) | TGI (SF-539 CNS) | TGI (MDA-N) | TGI (SF-295 CNS) | TGI (786-0 renal) | TGI (CCRF-CEM leukemia) | TGI (NCI-H23 lung) | TGI (TK-10 renal) | TGI (MDA-MB-435) | TGI (NCI/ADR-RES ovarian) | TGI (K-562 leukemia) | TGI (NCI-H460 lung) |
| --- | --- | --- | --- | --- | --- | --- | --- | --- | --- | --- | --- | --- | --- | --- | --- | --- | --- | --- | --- |
| CC1=C(O)C(=O)C=C2C1=CC=C1[C@@]2(C)CC[C@@]2(C)C3C[C@@H](C)C(=O)[C@@H](O)[C@]3(C)CC[C@]12C (stereo partly specified) | 2.76 µM | 11.1 µM | 3.4 µM | 1.3 µM | 11 µM | 19.6 µM | 3.26 µM | 3.07 µM | 4.33 µM | 3.3 µM | 13.4 µM | 2.36 µM | 1.87 µM | 3.6 µM | 3.82 µM | 6.6 µM | 9.55 µM | 5.17 µM | 37.6 µM |
| CCCCNC(=O)OCCN=c1c2ccccc2ccc2ccccc12 | > 100 µM | > 100 µM | > 100 µM | > 100 µM | > 100 µM | > 100 µM | > 100 µM | > 100 µM | > 100 µM | > 100 µM | > 100 µM | > 100 µM | > 100 µM | > 100 µM | > 100 µM | > 100 µM | > 100 µM | > 100 µM | > 100 µM |
| O=C(O)c1ccccc1CN1CCCC(C(=O)O)C1 (stereo unspecified) | – | > 100 µM | > 100 µM | > 100 µM | > 100 µM | > 100 µM | > 100 µM | > 100 µM | > 100 µM | > 100 µM | > 100 µM | > 100 µM | – | > 100 µM | > 100 µM | > 100 µM | > 100 µM | > 100 µM | > 100 µM |
| Cc1ccc(S(=O)(=O)n2cc(/C=C/C#N)c(-c3cn(S(=O)(=O)c4ccc(C)cc4)cc3-c3cn(S(=O)(=O)c4ccc(C)cc4)cc3/C=C/C#N)c2)cc1 | – | > 100 µM | > 100 µM | > 100 µM | > 100 µM | > 100 µM | > 100 µM | > 100 µM | – | > 100 µM | > 100 µM | > 100 µM | – | > 100 µM | > 100 µM | > 100 µM | > 100 µM | > 100 µM | – |
| Fc1ccc(Nc2nc(Cl)c3[nH]cnc3n2)cc1Cl | > 100 µM | > 100 µM | > 100 µM | > 100 µM | > 100 µM | > 100 µM | > 100 µM | > 100 µM | > 100 µM | > 100 µM | > 100 µM | > 100 µM | > 100 µM | > 100 µM | > 100 µM | > 100 µM | > 100 µM | – | > 100 µM |
| O=C1Cc2c(-c3cccs3)cc(-c3ccccc3)nc2-c2ccccc2N1 | – | > 100 µM | > 100 µM | > 100 µM | > 100 µM | > 100 µM | > 100 µM | > 100 µM | > 100 µM | > 100 µM | > 100 µM | > 100 µM | > 100 µM | > 100 µM | > 100 µM | > 100 µM | > 100 µM | > 100 µM | > 100 µM |
| O=c1[nH]c(=S)[nH]cc1CN1CCOCC1 | > 100 µM | – | > 100 µM | > 100 µM | > 100 µM | > 100 µM | > 100 µM | > 100 µM | > 100 µM | > 100 µM | > 100 µM | > 100 µM | > 100 µM | > 100 µM | > 100 µM | > 100 µM | > 100 µM | > 100 µM | > 100 µM |
| CC(=O)OCC1OC(n2c3c(c(-c4ccc(C)cc4)c(C#N)c2=S)C(=O)CC(C)(C)C3)C(OC(C)=O)C(OC(C)=O)C1OC(C)=O (stereo unspecified) | > 100 µM | 61.8 µM | 38.1 µM | > 100 µM | – | > 100 µM | > 100 µM | > 100 µM | 67.2 µM | 41.5 µM | 89 µM | > 100 µM | > 100 µM | > 100 µM | > 100 µM | > 100 µM | > 100 µM | 95.3 µM | > 100 µM |
| O=C(O)C(Cc1cc(I)c(O)c(I)c1)C1CCCCC1 (stereo unspecified) | – | > 100 µM | > 100 µM | > 100 µM | > 100 µM | > 100 µM | > 100 µM | > 100 µM | – | > 100 µM | > 100 µM | > 100 µM | > 100 µM | 65.5 µM | 88.7 µM | > 100 µM | > 100 µM | > 100 µM | 46 µM |
| CC(CN1NC12CCCC2)N1NC12CCCC2 (stereo unspecified) | > 100 µM | > 100 µM | > 100 µM | – | > 100 µM | > 100 µM | > 100 µM | > 100 µM | > 100 µM | > 100 µM | > 100 µM | > 100 µM | > 100 µM | > 100 µM | > 100 µM | > 100 µM | > 100 µM | > 100 µM | > 100 µM |
| CC[C@@H]1/C=C/C=C/C[C@H](C)[C@@H](O)[C@@H](C)C(=O)[C@H](C)[C@@H](O)[C@H](C)C(=O)[C@H](C)[C@@H](O)[C@H](C)/C=C/C(=O)O[C@H]2[C@@H](C)[C@@H](CC1)O[C@@]1(CC[C@@H](C)[C@@H](CC(C)O)O1)[C@@H]2C (stereo partly specified) | 7.27 µM | – | 24.4 µM | 10.2 µM | > 19.3 µM | > 21.5 µM | > 14.7 µM | 16.7 µM | 24.6 µM | > 17.6 µM | – | > 25 µM | > 14.4 µM | > 25 µM | > 23.6 µM | > 18.3 µM | > 19.1 µM | > 25 µM | > 22.2 µM |
| CCOC(=O)c1nc2ccccc2nc1Oc1cc(OC)cc(OC)c1 | – | > 100 µM | > 100 µM | > 100 µM | > 100 µM | > 100 µM | > 100 µM | > 100 µM | > 100 µM | > 100 µM | > 100 µM | > 100 µM | > 100 µM | – | > 100 µM | > 100 µM | > 100 µM | > 100 µM | > 100 µM |
